# Results: patent US20090181898A1, “ABUSE-RESISTANT A[…]” (SHIRE LLC, priority 2002, published 2009)
# “And” between values parts separate entries of the source, which are not always exact repeats. Equal entries are not always repeated. Marks after values point to notes of the source that are not given here.
# Legend:
# [1] = test system: children with ADHD; test: Pediatric crossover efficacy study, SKAMP-Deportment score
# [2] = Stability under treatment with commercially available acids and bases; assay type: physicochemical; conditions: 20° C.
# Method: For acids and bases (Table 59), 10 mg of Lys-Amp was mixed with 2 mL of each stock solution, and the solution was shaken at 20° C. For enzyme treatment (Table 60), 10 mg Lys-Amp was mixed with 5 mL of each enzyme cocktail, and the solution was shaken at 37° C. […] Many of the commercially available reagents also contained various solvents and/or surfactants.
# Unless otherwise indicated, solutions were used directly from the container and were combined with neat Lys-Amp solid. Lewis Red Devil® Lye, Enforcer Drain Care® Septic Treatment, and Rid-X® Septic Treatment were prepared as saturated solutions in H2O. Enzymes used were purchased from Sigma and directly dissolved in water (3 mg/mL pepsin, 10 mg/mL pancreatin, 3 mg/mL pronase, 3 mg/mL esterase), while enzyme-containing nutraceuticals such as Omnigest® and VitälZym® were first either crushed or opened (1 tablet or capsule per 5 mL of H2O).
# [3] = Kitchen tests: water, acid (vinegar), base (baking powder, baking soda), boiling; assay type: physicochemical; conditions: for free amphetamine released: heated to boiling for 20-60 minutes
# Method: “Kitchen tests” were performed in anticipation of attempts by illicit chemists to release free amphetamine from the amphetamine conjugate.
# [4] = Stability under acidic conditions; conditions: for d-amphetamine content released: reflux; for d-amphetamine released: acids; for Hydrolysis: reflux in concentrated HCl
# [5] = Clinical steady-state pharmacokinetics, 70 mg capsules once daily for 7 days, healthy adults, fasting
# Method: Patients fasted for at least 10 hours before and 4 hours after final dosing. Venous blood samples (7 mL) were drawn into EDTA vacutainers both before medication dosing on days 0, 1, 6, and 7 (in the morning) and at 16 time points (hours 0.5, 1, 1.5, 2, 3, 4, 5, 6, 7, 8, 10, 12, 16, 24, 48, and 72) after final dosing on day 7. Immediately after sample collection, vacutainer tubes were centrifuged at 3000 rpm at 4° C. for 10 minutes; within 1 hour of collection, they were stored at −20° C.
# [6] = Stability under concentrated conditions (concentrated HCl, 10 N NaOH, elevated temperature)
# [7] = Oral pharmacokinetics of L-lysine-d-amphetamine diHCl compared to d-amphetamine sulfate (ELISA); conditions: rat; for Plasma concentrations of d-amphetamine, individual animals: 3 mg/kg d-amphetamine base, Rat #1-#4; for Mean plasma d-amphetamine concentration: n=4
# [8] = Pharmacokinetics of d-amphetamine in male and female beagle dogs after oral administration, […]; conditions: oral […] d-amphetamine base
# [9] = Oral PK study at a high dose (60 mg/kg), 8 h time course; conditions: rat; for Mean plasma amphetamine concentration: high dose 60 mg/kg
# [10] = Intranasal bioavailability of L-lysine-d-amphetamine vs amphetamine (ELISA); conditions: rat, 3 mg/kg
# [11] = steady state, 70 mg once daily for 7 days, healthy adults, fasting, mean n = 11
# [12] = 10 N NaOH, elevated temperature
# [13] = conc. HCl, about 90° C. for 1 hour, 0.4 mg/mL
molecule,measurement,setting,value
"CC(Cc1ccccc1)NC(=O)C(N)CCCCN [L-lysine-d-amphetamine, 2,6-diaminohexanoic acid-(1-methyl-2-phenylethyl)-amide]",Duration of action,"[1]; children 6-12, SKAMP",12 h
same,Onset of significant effects post morning dose,"[1]; children 6-12, SKAMP",≤ 2 h
same,SKAMP-Deportment score compared to placebo,"[1]; children 6-12, once daily for 1 week each treatment",highly effective compared to placebo
same,Hydrolysis by commercial acids and bases,[2]; up to 24 h,ineffective
same,d-amphetamine release,[2]; Miracle-Gro®,7%
same,d-amphetamine release,[2]; Olympic® Deck Cleaner,4%
same,free amphetamine released,[3]; Baking Powder,0%
same,free amphetamine released,[3]; Baking Soda,0%
same,free amphetamine released,[3]; Tap Water,0%
same,free amphetamine released,[3]; Vinegar,0%
same,Release of free amphetamine in kitchen tests,"[3]; water, vinegar, baking powder, baking soda, boiling 20-60 minutes",no detectable free amphetamine
same,d-amphetamine content released,[4]; 50% sulfuric acid,59%
same,d-amphetamine released,[4]; 90° C.,only a limited amount
same,d-amphetamine released,[4]; ambient temperature,only a limited amount
same,d-amphetamine content released,[4]; concentrated hydrochloric acid,85%
same,Stability,"[4]; reflux in concentrated H2SO4, 2 hours",complete decomposition
same,Hydrolysis,[4]; 5 hours,28%
same,Hydrolysis,[4]; 22 hours,76%
same,Time within which L-lysine-d-amphetamine was completely eliminated,"[5]; healthy adults, 70 mg",≤ 6 h
same,Tolerability,"[5]; healthy adults, 70 mg, 7 days",well tolerated
same,AUC(0-inf),"[5]; human, in vivo, 70 mg",61.1 ng·h/mL
same,Cmax,"[5]; human, in vivo, 70 mg",47.9 ng/mL
same,Tmax,"[5]; human, in vivo, 70 mg",1.14 h
same,half-life,"[5]; human, in vivo, 70 mg",0.43 h
same,AUC(0-t),"[5]; human, in vivo, 70 mg, AUC0-24 of intact L-lysine-d-amphetamine, steady state, 70 mg once daily for 7 days, healthy adults, fasting, mean n = 11",60.7 ng·h/mL
same,AUC(0-t),"[5]; human, in vivo, 70 mg, AUC0-t of intact L-lysine-d-amphetamine, steady state, 70 mg once daily for 7 days, healthy adults, fasting, mean n = 11",59.4 ng·h/mL
same,AUC(0-t),"[5]; human, in vivo, 70 mg, Mean AUC0-24 of intact L-lysine-d-amphetamine, healthy adults, 70 mg once daily, after dose 7",60.7 ng·h/mL
same,AUC0-∞ of intact L-lysine-d-amphetamine,[5]; [11],61.06 ng·h/mL
same,Cmin of intact L-lysine-d-amphetamine,[5]; [11],0.0 ng/mL
same,FI of intact L-lysine-d-amphetamine,[5]; [11],1896.06%
same,% AUC Lys-Amp (HPLC),[6]; [12],99 % AUC
same,% AUC d-amphetamine (HPLC),[6]; [12],<1 % AUC
same,% AUC Lys-Amp (HPLC),[6]; [13],96 % AUC
same,% AUC d-amphetamine (HPLC),[6]; [13],4 % AUC
same,d-amphetamine released under concentrated conditions,"[6]; concentrated HCl, about 90° C., 1 hour, HPLC",only a minimal amount
d-amphetamine,AUC (0-8 h) of d-amphetamine,[7]; 3 mg/kg,341 ± 35 ng·h/mL
same,Cmax of d-amphetamine,[7]; 3 mg/kg,111 ± 27 ng/mL
same,Mean Peak of d-amphetamine,[7]; 3 mg/kg,129 ng/mL
same,"Mean Peak, Percent Amphetamine",[7]; 3 mg/kg,100%
same,"Plasma concentrations of d-amphetamine, individual animals",[7]; 0.5 h,144 ng/mL and 157 ng/mL and 101 ng/mL and 115 ng/mL
same,"Plasma concentrations of d-amphetamine, individual animals",[7]; 1 h,152 ng/ml and 78 ng/ml (2×) and 115 ng/ml
same,"Plasma concentrations of d-amphetamine, individual animals",[7]; 3 h,34 ng/mL and 45 ng/mL and 72 ng/mL and 38 ng/mL
same,"Plasma concentrations of d-amphetamine, individual animals",[7]; 5 h,20 ng/mL and 14 ng/mL and 12 ng/mL and 15 ng/mL
same,"Plasma concentrations of d-amphetamine, individual animals",[7]; 8 h,3 ng/ml (2×) and 2 ng/ml (2×)
same,Mean plasma d-amphetamine concentration,"[7]; 3 mg/kg, 0.5 h",129 ng/mL
same,Mean plasma d-amphetamine concentration,"[7]; 3 mg/kg, 1 h",106 ng/mL
same,Mean plasma d-amphetamine concentration,"[7]; 3 mg/kg, 3 h",47 ng/mL
same,Mean plasma d-amphetamine concentration,"[7]; 3 mg/kg, 5 h",15 ng/mL
same,Mean plasma d-amphetamine concentration,"[7]; 3 mg/kg, 8 h",2 ng/mL
same,Tmax of d-amphetamine,[8]; Females,1 h
same,"Tmax of d-amphetamine, Percent (of Amp)",[8]; Females,100%
same,Tmax of d-amphetamine,[8]; Males,1 h
same,"Tmax of d-amphetamine, Percent (of Amp)",[8]; Males,100%
same,AUC of d-amphetamine,[9]; 60 mg/kg,13420 ng·h/mL
same,Animals that died or were sacrificed due to acute symptoms of toxicity,[9]; 60 mg/kg,8 of 12
same,Cmax of d-amphetamine,[9]; 60 mg/kg,3623 ng/mL
same,Mean Peak of d-amphetamine,[9]; 60 mg/kg,2973 ng/mL
same,"Mean Peak, Percent d-Amp",[9]; 60 mg/kg,100%
same,Mean plasma amphetamine concentration,[9]; 0.5 h,2643 ng/mL
same,Mean plasma amphetamine concentration,[9]; 1 h,2828 ng/mL
same,Mean plasma amphetamine concentration,[9]; 3 h (d-amphetamine n = 2),2944* ng/ml
same,Mean plasma amphetamine concentration,[9]; 5 h (d-amphetamine n = 2),153* ng/ml
same,Mean plasma amphetamine concentration,[9]; 8 h (d-amphetamine n = 1),1309** ng/ml
same,AUC (0-[…]) of d-amphetamine,[10]; hydrochloride salt study,727 ng·h/mL
same,Cmax of d-amphetamine,[10]; hydrochloride salt study,"1,377 ng/ml"
same,AUC (0-1.0 h) of d-amphetamine,[10]; mesylate salt study,573 ng·h/mL
same,Cmax of d-amphetamine,[10]; mesylate salt study,1114 ng/mL
